From patent US11214803B2, “Modulators of YAP1 expression” (Ionis Pharmaceuticals, Inc., priority 2019, dated 2022)
pIC50: −log10 of the molar value. Strand notation (5' to 3'): a small letter for the sugar, then the base; units joined by * are phosphorothioate-linked, units joined directly phosphodiester-linked; [ ] holds rarer units or linkages, { } end groups; capitals alone tell only the bases. e = 2'-O-(2-methoxyethyl) (MOE); k = constrained ethyl (cEt); [5mC] = 5-methylcytosine; d = 2'-deoxy (DNA); m = 2'-O-methyl

Test system: Yap1 mRNA
Test: Dose-dependent inhibition of human Yap1 in SNU-449 cells (Example 9, RTS36584)
Assay type: cell-based
Details: free uptake; for % UTC (Yap1 mRNA): approximately 48 hours; for pIC50: linear regression on a log/linear plot
Outline: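 SNU-449 cells (10,000/well) took up modified oligonucleotides by free uptake at a range of doses for about 48 h. Yap1 mRNA was quantified with primer-probe set RTS36584, normalised to RIBOGREEN total RNA and expressed as % untreated control; IC50 from linear regression on log/linear plot.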

| Substance | % UTC (Yap1 mRNA) (31.3 nM) [% UTC] | % UTC (Yap1 mRNA) (125.0 nM) [% UTC] | % UTC (Yap1 mRNA) (500.0 nM) [% UTC] | % UTC (Yap1 mRNA) (2000.00 nM) [% UTC] | pIC50 |
| --- | --- | --- | --- | --- | --- |
| 1198527 (kA*kA*dA*dG*dT*dG*dT*dA*dT*dG*dT*e[5mC]*kA*eG*kA*eA; antisense) [compound 1198527] | 63 | 35 | 12 | 3 | 7.00 |
| 1200794 (kA*kG*kA*dG*dT*mA*dT*dG*dT*dG*dG*d[5mC]*dA*kA*kT*kA; antisense) [compound 1200794] | 85 | 59 | 31 | 13 | 6.70 |
| 1198961 (kA*kA*dA*dG*dT*dG*dT*dA*dT*dG*dT*k[5mC]*dA*kG*dA*kA; antisense) [compound 1198961] | 77 | 35 | 11 | 3 | 7.00 |
| 1197179 (kT*kG*kG*dA*dA*dA*dT*dT*dG*dT*d[5mC]*dT*d[5mC]*kA*kT*kG; antisense) [compound 1197179] | 58 | 38 | 17 | 7 | 7.00 |
| 1198832 (kG*k[5mC]*dA*d[5mC]*dT*dT*dT*dT*dA*d[5mC]*dA*kT*eT*kA*eG*kG; antisense) [compound 1198832] | 77 | 53 | 23 | 13 | 7.00 |
| 1200860 (kT*kA*kA*dA*dG*mU*dG*dT*dA*dT*dG*dT*d[5mC]*kA*kG*kA; antisense) [compound 1200860] | 59 | 35 | 15 | 5 | 7.30 |
| 1198718 (kG*eA*kA*dA*dT*dT*dG*dT*d[5mC]*dT*d[5mC]*dA*eT*eG*k[5mC]*k[5mC]; antisense) [compound 1198718] | 87 | 37 | 14 | 4 | 7.00 |
| 1198696 (kT*kG*dT*dA*dT*dG*dT*d[5mC]*dA*dG*dA*dA*kG*eA*kG*eT) [compound 1198696] | 58 | 31 | 11 | 2 | 7.40 |
| 1009325 (kA*kG*kA*dG*dT*dA*dT*dG*dT*dG*dG*d[5mC]*dA*kA*kT*kA; antisense) [compound 1009325] | 59 | 36 | 16 | 4 | 7.00 |
| 1198267 (kA*kG*dT*dG*dT*dA*dT*dG*dT*d[5mC]*dA*eG*eA*eA*kG*kA; antisense) [compound 1198267] | 78 | 44 | 15 | 3 | 7.00 |
| 1198470 (kT*kA*dT*dT*dA*dG*dA*dG*dT*dA*dT*eG*kT*eG*kG*e[5mC]; antisense) [compound 1198470] | 73 | 41 | 18 | 9 | 7.00 |
| 1198460 (kG*kA*dA*dA*dT*dT*dG*dT*d[5mC]*dT*d[5mC]*eA*kT*eG*k[5mC]*e[5mC]; antisense) [compound 1198460] | 60 | 49 | 28 | 11 | 7.00 |
| 1198500 (kA*kT*dT*dT*dA*dG*dG*dA*dT*dG*d[5mC]*eA*kT*eG*kG*eT; antisense) [compound 1198500] | 72 | 51 | 34 | 15 | 6.70 |
| 1198507 (kT*kT*dA*dT*dA*dT*dG*dG*dT*dT*dT*eT*kG*eT*kG*eT; antisense) [compound 1198507] | 83 | 57 | 29 | 13 | 6.70 |
| 1198900 (kA*kG*dA*dG*dT*dA*dT*dG*dT*dG*dG*k[5mC]*dA*kA*dT*kA; antisense) [compound 1198900] | 69 | 36 | 18 | 7 | 7.00 |
| 1198902 (kT*kT*dA*dG*dA*dG*dT*dA*dT*dG*dT*kG*dG*k[5mC]*dA*kA; antisense) [compound 1198902] | 74 | 46 | 22 | 10 | 7.00 |
